The values below come from ChEMBL document CHEMBL1201862, “PubChem BioAssay data set” (2004).

In general, IC50 refers to the concentration needed to halve the response being measured. What is called EC50 is the concentration needed to bring the measured effect to its halfway point. The term AC50 denotes the concentration giving half of the maximal activity seen.

The target in data set [1] is T1, Ubiquitin-conjugating enzyme E2 N (Homo sapiens, UniProt P61088).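 Also: Dose-response confirmation in a TR-FRET assay detecting UBC13-driven polyubiquitin chain formation, inhibition measured.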
T1 sequence (P61088 whole entry): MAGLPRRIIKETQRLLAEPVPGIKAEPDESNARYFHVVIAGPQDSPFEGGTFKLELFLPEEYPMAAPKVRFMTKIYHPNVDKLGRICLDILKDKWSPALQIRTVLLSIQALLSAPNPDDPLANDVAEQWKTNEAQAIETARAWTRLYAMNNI
The class given is functional.

In a further data set the target is Troponin, cardiac muscle (Homo sapiens, UniProt P19429+P45379+P63316). Nature of the data set: Fluorescence-based biochemical high throughput dose response assay for activators of the calcium sensitivity of cardiac Regulated Thin Filaments (RTF). [Related pubchem assays (depositor defined):AID493008, AID493018, AID504382, AID504383]. The class given is protein-complex assay.

Data set [2] in a line: Trypanosoma cruzi growth suppression in host cells – NIH3T3 host cells, beta-gal luminescence, confirmation (AID 2044).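 Also: intracellular parasites grown in NIH/3T3 mouse fibroblasts as host cells; luminescent beta-galactosidase reporter signal from transgenic T. cruzi replicating inside host cells; inhibitors lower the luminescence signal.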 The class given is functional, cell-based.
Data set [3] in a line: NIH3T3 cell viability loss – ATP luminescence, mouse fibroblasts, counter-screen, dose response (AID 2010).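 Also: cells exposed to compound for about 90 hours before reading.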 The format is functional, cell-based. For orientation: The purpose of a counterscreen is to sort out artefacts and off-target activity.
The target of data set [4] is T2, Microphthalmia-associated transcription factor (Homo sapiens, UniProt O75030).
T2 sequence (O75030 whole entry): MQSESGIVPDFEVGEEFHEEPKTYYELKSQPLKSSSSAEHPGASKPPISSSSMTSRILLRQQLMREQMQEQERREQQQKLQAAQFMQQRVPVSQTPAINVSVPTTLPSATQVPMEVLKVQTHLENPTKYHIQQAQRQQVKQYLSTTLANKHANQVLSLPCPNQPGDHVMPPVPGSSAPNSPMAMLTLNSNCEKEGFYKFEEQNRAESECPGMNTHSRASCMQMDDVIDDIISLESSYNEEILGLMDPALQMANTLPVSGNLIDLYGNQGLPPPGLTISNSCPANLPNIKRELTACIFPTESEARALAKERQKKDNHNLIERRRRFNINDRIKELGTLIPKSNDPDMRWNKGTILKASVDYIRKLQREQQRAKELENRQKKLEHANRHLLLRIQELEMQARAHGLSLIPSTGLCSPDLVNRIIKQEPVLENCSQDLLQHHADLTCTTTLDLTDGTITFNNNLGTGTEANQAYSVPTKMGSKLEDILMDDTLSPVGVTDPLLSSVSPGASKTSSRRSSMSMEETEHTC
Nature of the data set: reducers of TRPM1 reporter luminescence, concentration series – cell-based, SK-MEL-5, cherry-picked, set 3, MITF inhibitor project, dose response (AID 493073).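 Also: SK-MEL-5 melanoma cells with luciferase driven by the MITF target TRPM1 promoter.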 The format is functional.

A further data set concerns the target Cytochrome P450 3A4 (Homo sapiens, UniProt P08684).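 Also: CYP3A4 tested as one member of a cytochrome P450 panel screen.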
Data set [5] concerns the target Glyceraldehyde-3-phosphate dehydrogenase (Homo sapiens, UniProt P04406).
The target in data set [6] is T3, Alkaline phosphatase, tissue-nonspecific isozyme (Homo sapiens, UniProt P05186).
T3 sequence (P05186 whole entry): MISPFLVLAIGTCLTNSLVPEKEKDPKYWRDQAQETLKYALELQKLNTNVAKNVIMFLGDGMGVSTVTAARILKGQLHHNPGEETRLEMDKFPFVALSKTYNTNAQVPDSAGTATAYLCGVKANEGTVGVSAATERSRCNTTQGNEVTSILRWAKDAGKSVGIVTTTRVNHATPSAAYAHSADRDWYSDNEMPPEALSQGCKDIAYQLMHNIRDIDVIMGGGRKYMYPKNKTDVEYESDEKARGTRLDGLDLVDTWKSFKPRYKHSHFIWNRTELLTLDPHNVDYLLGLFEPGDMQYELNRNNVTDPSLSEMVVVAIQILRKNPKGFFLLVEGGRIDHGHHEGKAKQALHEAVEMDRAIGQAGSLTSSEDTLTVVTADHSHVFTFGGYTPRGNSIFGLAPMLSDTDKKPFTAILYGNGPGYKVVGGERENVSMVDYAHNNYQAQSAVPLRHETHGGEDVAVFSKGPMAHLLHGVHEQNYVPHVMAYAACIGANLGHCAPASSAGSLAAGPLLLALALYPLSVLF
Nature of the data set: potency against alkaline phosphatase TNAP – biochemical, luminescent, dose response, SAR follow-up (AID 1056).

The target in another data set is Cytochrome P450 2C9 (Homo sapiens, UniProt P11712).

The structures appear in SMILES notation. Active and inactive are the calls of the source.

Chain of Cytochrome P450 3A4 (P08684 whole entry): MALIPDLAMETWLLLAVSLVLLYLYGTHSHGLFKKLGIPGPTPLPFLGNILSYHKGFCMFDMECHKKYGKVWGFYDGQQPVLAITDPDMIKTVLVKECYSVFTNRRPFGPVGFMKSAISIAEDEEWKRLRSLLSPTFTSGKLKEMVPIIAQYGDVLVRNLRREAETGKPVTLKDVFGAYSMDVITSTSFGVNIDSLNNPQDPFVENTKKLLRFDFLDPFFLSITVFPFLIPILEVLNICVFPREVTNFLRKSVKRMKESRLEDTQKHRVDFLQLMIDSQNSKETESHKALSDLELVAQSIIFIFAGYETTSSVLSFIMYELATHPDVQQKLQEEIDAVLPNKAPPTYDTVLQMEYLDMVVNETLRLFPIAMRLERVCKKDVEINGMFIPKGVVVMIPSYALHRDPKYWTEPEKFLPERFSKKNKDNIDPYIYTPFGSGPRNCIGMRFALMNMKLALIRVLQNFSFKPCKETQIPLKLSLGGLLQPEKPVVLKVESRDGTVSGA
Chain of Glyceraldehyde-3-phosphate dehydrogenase (P04406 whole entry): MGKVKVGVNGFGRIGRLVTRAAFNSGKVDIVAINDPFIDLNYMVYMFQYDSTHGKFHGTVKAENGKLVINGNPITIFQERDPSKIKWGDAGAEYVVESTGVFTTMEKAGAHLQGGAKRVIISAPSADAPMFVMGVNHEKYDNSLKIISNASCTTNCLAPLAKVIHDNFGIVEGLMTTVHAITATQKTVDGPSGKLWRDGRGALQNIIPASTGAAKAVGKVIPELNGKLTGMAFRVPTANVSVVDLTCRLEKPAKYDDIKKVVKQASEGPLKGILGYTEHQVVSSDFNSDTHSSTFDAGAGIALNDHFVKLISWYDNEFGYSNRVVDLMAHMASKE
Chain of Cytochrome P450 2C9 (P11712 whole entry): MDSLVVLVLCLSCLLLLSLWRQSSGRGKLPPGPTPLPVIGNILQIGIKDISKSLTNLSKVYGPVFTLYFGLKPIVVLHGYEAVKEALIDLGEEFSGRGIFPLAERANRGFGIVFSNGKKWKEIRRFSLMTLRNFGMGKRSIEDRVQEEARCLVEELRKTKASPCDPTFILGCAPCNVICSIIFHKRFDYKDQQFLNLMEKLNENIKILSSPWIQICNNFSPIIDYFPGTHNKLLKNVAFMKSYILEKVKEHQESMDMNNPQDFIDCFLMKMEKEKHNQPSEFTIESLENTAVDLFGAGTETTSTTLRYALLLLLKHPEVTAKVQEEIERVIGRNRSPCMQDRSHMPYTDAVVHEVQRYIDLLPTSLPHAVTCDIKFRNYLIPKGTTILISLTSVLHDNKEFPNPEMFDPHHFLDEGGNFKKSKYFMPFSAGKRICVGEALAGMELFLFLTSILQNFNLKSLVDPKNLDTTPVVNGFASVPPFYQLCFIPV

On to `CCC(C(=O)NC1CCCC1)N(C(=O)c1snc(C(N)=O)c1N)c1ccc(OC)cc1` (stereo unspecified), for which the IC50 in data set [1] is > 20 µM (inactive).

Consider `Cc1ccccc1-n1nnnc1SCC(C)C`, for which the EC50 on Troponin, cardiac muscle was > 71.5 µM (inactive).

For the molecule `COc1ccccc1-c1nnc(SCc2nc3ccccc3s2)n1C`, the EC50 on Troponin, cardiac muscle is > 71.5 µM (inactive).

Consider `CCN(CC)S(=O)(=O)c1cccc(C(=O)N/N=C/c2ccc([N+](=O)[O-])o2)c1`, for which the EC50 in data set [2] was 0.218 µM (active); in data set [3] it was 13.3 µM (active). The AC50 in data set [4] is 14.1 µM (active).

On to `COc1ccc(C[C@@H]2CN3C(=NC[C@@H]3Cc3ccc(O)cc3)N2C[C@H](C)NC(=O)CCC2CCCCC2)cc1`, for which the IC50 in data set [1] was > 20 µM (inactive).

On to `COc1cc(OC)cc(-c2oc(=O)c3cc(OC)c(OC)cc3c2C(F)(F)F)c1`, for which, in data set [4], the concentration at half-maximal activity (AC50) is 12.8 µM (active).

Consider `COC(=O)N1CCC2(CC1)CCN(c1ncccn1)CC2`, for which the AC50 result at Cytochrome P450 3A4 was “inconclusive”.

Consider `COc1ccc(S(=O)(=O)Nc2cnc3ccccc3c2)cc1OC`, for which the results for the IC50 in data set [5] and in [6] were > 100 µM (not active) and > 100 µM (inactive), respectively.

As for `Cn1c(=N)c(S(=O)(=O)c2ccc(F)cc2)cc2c(=O)n3ccccc3nc21`, the values for the AC50 on Cytochrome P450 2C9 and at Cytochrome P450 3A4 were 17.8 µM (inconclusive) and “inconclusive”, respectively.

`COc1ccc(CCNC(=O)COC(=O)c2cc(=O)[nH]c3ccccc23)cc1`: the EC50 on Troponin, cardiac muscle was > 71.5 µM (inactive).

For `Cc1ccc(-c2cc(C(=O)O)[nH]n2)cc1C`, the IC50 in [5] was > 100 µM (not active); in data set [6] it was 62.9 µM (active).
